Literature values, collected in patent publication US9329191B2, “Reaction-based fluorescent probe for selective detection of carbon monoxide using metal-mediated carbonylation” (THE REGENTS OF THE UNIVERSITY OF CALIFORNIA, priority 2013, dated 2016).

Details: literature

Structure (SMILES): NCC(=O)O.[C-]#[O+].[C-]#[O+].[C-]#[O+].[Cl][Ru] [CORM-3, [Ru(CO)3Cl(glycinate)]]
- CORM-3 concentration shown to not alter cell viability: up to 500 μM
